The source of these data is ChEMBL document CHEMBL2169807, “Analysis of the structural and mechanistic factors in antioxidants that preserve mitochondrial function and confer cytoprotection” (Bioorg Med Chem, 2012).

For assay [1], the system named is CCRF-CEM. Put plainly: Cytoprotection in diethyl maleate-treated human CCRF-CEM cells 0.1 uM incubated for 17 hrs before diethyl maleate challenge by trypan blue dye exclusion method (reference value: 18 +/- 10%). Type of assay: functional.
The species entered for assay [2] is Bos taurus. Kind of assay: Inhibition of NADH oxidase activity in bovine heart sub-mitochondrial particles assessed as remaining enzyme activity at 1 uM by spectrophotometry relative to untreated control.
Assay [3] is filed under the species Homo sapiens. Put plainly: Preservation of mitochondrial membrane potential in diethyl maleate-treated human Friedreich's ataxia lymphocytes at 2.5 uM pre-incubated for 16 hrs before diethyl maleate challenge by FACS method (reference value: 25%). Type of assay: functional.
The species entered for assay [4] is Homo sapiens. Put plainly: Inhibition of lipid peroxidation in diethyl maleate-treated human Friedreich's ataxia lymphocytes at 5 uM pre-incubated for 16 hrs before diethyl maleate challenge by FACS method relative to untreated control. Type of assay: functional. (In general: A flow cytometer gives signals particle by particle.)
The species entered for assay [5] is Homo sapiens. Put plainly: Preservation of mitochondrial membrane potential in diethyl maleate-treated human Friedreich's ataxia lymphocytes at 1 uM pre-incubated for 16 hrs before diethyl maleate challenge by FACS method (reference value: 25%). The assay is classed as functional.
The species named for assay [6] is Bos taurus. Kind of assay: Inhibition of NADH oxidase activity in bovine heart sub-mitochondrial particles assessed as remaining enzyme activity at 5 uM by spectrophotometry relative to untreated control.
For assay [7], the species on record is Homo sapiens. Put plainly: Inhibition of lipid peroxidation in diethyl maleate-treated human Friedreich's ataxia lymphocytes at 2.5 uM pre-incubated for 16 hrs before diethyl maleate challenge by FACS method relative to untreated control. The assay is classed as functional.
The subject of assay [8] is CCRF-CEM. Put plainly: Cytoprotection in diethyl maleate-treated human CCRF-CEM cells 2.5 uM incubated for 17 hrs before diethyl maleate challenge by trypan blue dye exclusion method (reference value: 18 +/- 10%). The assay is classed as functional.
In assay [9] the test system is CCRF-CEM. Kind of assay: Cytoprotection in diethyl maleate-treated human CCRF-CEM cells 0.5 uM incubated for 17 hrs before diethyl maleate challenge by trypan blue dye exclusion method (reference value: 18 +/- 10%). Type of assay: functional.
Assay [10] is filed under the species Homo sapiens. Put plainly: Preservation of mitochondrial membrane potential in diethyl maleate-treated human Friedreich's ataxia lymphocytes at 0.5 uM pre-incubated for 16 hrs before diethyl maleate challenge by FACS method (reference value: 25%). The assay is classed as functional.
Assay [11] relates to CCRF-CEM. Put plainly: Inhibition of diethyl maleate-induced ROS production in human CCRF-CEM cells at 0.25 to 2.5 uM incubated for 16 hrs by DCFH-DA dye staining based FACS method. Type of assay: functional, cell-based.
For assay [12], the species on record is Bos taurus. Kind of assay: Inhibition of NADH oxidase activity in bovine heart sub-mitochondrial particles assessed as remaining enzyme activity at 10 uM by spectrophotometry relative to untreated control.
Assay [13] in a line: Cytoprotection in diethyl maleate-treated human Friedreich's ataxia lymphocytes incubated for 17 hrs before diethyl maleate challenge by trypan blue dye exclusion method. Type of assay: functional.

Activity calls are given as the source filed them. No cut-off for these calls is given here.

As usually defined, the inhibition is the percentage by which the read-out fell short of the control. Turning to `Cc1cc(N)nc(CCCCCCCCCCO)c1O`, the Activity is 28% in the assay with CCRF-CEM [1]; 74% in the assay listed under Bos taurus [2]; 65% in the assay listed under Homo sapiens [3]; 50% in the assay filed under Homo sapiens [5]; 52% in the assay filed under Bos taurus [6]; 78% in the assay with CCRF-CEM [8]. The Activity amounted to 38% in the assay on CCRF-CEM [9], 42% in the assay filed under Homo sapiens [10] and 48% in the assay filed under Bos taurus [12]. Besides, the figures for the inhibition in the assay filed under Homo sapiens [4] and in the assay listed under Homo sapiens [7] were 74% and 62%, respectively. In addition, the inhibition entry in the assay with CCRF-CEM [11] was “Active”.
A word on the EC50: it is the concentration needed to bring the measured effect to its halfway point. For `Cc1nc(N(C)C)nc(CCCCCCCCCCO)c1O`, the Activity with CCRF-CEM [1] came out at 76%; in the assay listed under Bos taurus [2], 49%; in the assay filed under Homo sapiens [3] it was 86%; in the assay filed under Homo sapiens [5], 75%; in the assay filed under Bos taurus [6] it was 26%; in the assay with CCRF-CEM [8], 94%. Also, the Activity in the assay on CCRF-CEM [9] is 93%; in the assay listed under Homo sapiens [10] it was 68%; in the assay filed under Bos taurus [12], 22%. Also, the figures for the inhibition in the assay listed under Homo sapiens [4] and in the assay filed under Homo sapiens [7] were 91% and 83%, respectively. Further, in assay [13], the midpoint of the response, the EC50, lay at 0.38 µM. In the assay on CCRF-CEM [11], the inhibition result was “Active”.
Turning to `Cc1cc(N(C)C)nc(CCCCCCCCCCO)c1O`, the Activity in the assay with CCRF-CEM [1] was determined as 41%; in the assay filed under Bos taurus [2] it was 85%; in the assay listed under Homo sapiens [3] it was 73%; in the assay filed under Homo sapiens [5], 54%; in the assay filed under Bos taurus [6], 42%; with CCRF-CEM [8], 94%. For the same compound, the results for the Activity in the assay with CCRF-CEM [9], in the assay listed under Homo sapiens [10] and in the assay listed under Bos taurus [12] were 59%, 45% and 25%, respectively. The inhibition worked out at 82% in the assay filed under Homo sapiens [4] and 71% in the assay listed under Homo sapiens [7]. The compound further yielded an EC50 in assay [13] of 0.84 µM. Besides, the inhibition entry in the assay with CCRF-CEM [11] was “Active”.
Take `Cc1cc(N(C)C)nc(C)c1O`: the inhibition in the assay filed under Homo sapiens [4] is 3.9%; in the assay listed under Homo sapiens [7], 3.5%. For the same compound, the Activity in the assay listed under Homo sapiens [10] amounted to 29%.
As for `Cc1cc(N2C(C)CCC2C)nc(CCCCCCCCCCO)c1O` (stereo unspecified), the Activity was found to be 88% in the assay with CCRF-CEM [1]; 78% in the assay listed under Bos taurus [2]; 83% in the assay listed under Homo sapiens [3]; 72% in the assay filed under Homo sapiens [5]; 59% in the assay filed under Bos taurus [6]; 93% in the assay with CCRF-CEM [8]. In addition, the Activity in the assay with CCRF-CEM [9] turned out to be 90%; in the assay filed under Homo sapiens [10] it was 66%; in the assay filed under Bos taurus [12], 27%. The inhibition in the assay listed under Homo sapiens [4] was 97%; in the assay listed under Homo sapiens [7], 90%; in the assay on CCRF-CEM [11], “Dose-dependent effect”. This compound also showed an EC50 in assay [13] of 0.15 µM.
As to `Cc1cc(-n2c(C)ccc2C)nc(CCCCCCCCCCO)c1O`, the Activity with CCRF-CEM [1] stood at 18%; in the assay listed under Bos taurus [2], 71%; in the assay filed under Homo sapiens [3], 52%; in the assay filed under Homo sapiens [5], 44%; in the assay listed under Bos taurus [6] it was 49%; in the assay with CCRF-CEM [8], 26%. In addition, the Activity came to 23% in the assay on CCRF-CEM [9], 35% in the assay listed under Homo sapiens [10] and 43% in the assay filed under Bos taurus [12]. Also, the inhibition was 39% in the assay filed under Homo sapiens [4] and 20% in the assay filed under Homo sapiens [7].
For the compound `Cc1c(N(C)C)nc(CCCCCCCCCCO)c(O)c1C`, the Activity in the assay on CCRF-CEM [1] came out at 42%; in the assay filed under Bos taurus [2], 27%; in the assay filed under Homo sapiens [3], 70%; in the assay listed under Homo sapiens [5], 75%; in the assay filed under Bos taurus [6] it was 9%; in the assay on CCRF-CEM [8], 92%. Besides, the Activity in the assay with CCRF-CEM [9] stood at 47%; in the assay filed under Homo sapiens [10], 60%; in the assay filed under Bos taurus [12] it was 6%. Besides, the inhibition in the assay filed under Homo sapiens [4] was 97%; in the assay listed under Homo sapiens [7], 87%. This compound yielded an EC50 in assay [13] of 0.56 µM. Moreover, in the assay on CCRF-CEM [11], the inhibition result is “Active”.
As for `COC1=C(OC)C(=O)C(CCCCCCCCCCO)=C(C)C1=O` [IDEBENONE], the Activity was 34% in the assay with CCRF-CEM [1]; 65% in the assay filed under Bos taurus [2]; 75% in the assay filed under Homo sapiens [3]; 57% in the assay filed under Homo sapiens [5]; 53% in the assay listed under Bos taurus [6]; 88% in the assay with CCRF-CEM [8]. Further, the figures for the Activity with CCRF-CEM [9], in the assay filed under Homo sapiens [10] and in the assay listed under Bos taurus [12] were 49%, 47% and 15%, respectively. Moreover, the figures for the inhibition in the assay listed under Homo sapiens [4] and in the assay listed under Homo sapiens [7] were 77% and 68%, respectively. In addition, a half-maximal effect in assay [13] (EC50) was put at 0.73 µM. In addition, the inhibition entry in the assay with CCRF-CEM [11] is “Active”.
